# Tests used:
# Type in all cases: cell-based, human
# MSK-Leuk1 cells [1] = assay: Quantitative real-time RT-PCR of transcript levels after E2 exposure, MSK-Leuk1 cells; details: E2 1 nM
# Description: For all the experiments that involved estradiol (E2) exposure, MSK-Leuk1 cells were cultured in phenol red-free and serum-free DermaLife K Medium (Lifeline Cell Technology, Walkersville, Md.). SCC cells were cultured in their respective media with no phenol red, supplemented with charcoal-stripped serum (Gibco, Carlsbad, Calif.). Cells were incubated for 48 h to remove endogenous estrogens and then plated at 70% confluence. After 24 h, the medium was replaced with either control medium containing vehicle (0.01% ethanol) or medium supplemented with 1 nM E2 (Sigma-Aldrich, St. Louis, Mo.). Cells were harvested after the appropriate treatment period and analyzed.
# Quantitative real-time reverse transcription PCR. RNA was extracted from pelleted cultured cells using the RNeasy Mini kit (Qiagen, Valencia, Calif.) and its quality (18S and 28S RNA) was evaluated by gel electrophoresis. cDNA was synthesized from 1 μg of total RNA, using the High Capacity cDNA Archive Kit (Applied Biosystems, Inc., Foster City, Calif.). Three μl of the resulting cDNA were mixed with 12.5 μl of 2× TaqMan® Universal PCR master mix and 1.25 μL of 20× primer mix (Applied Biosystems) in a final reaction volume of 25 μL, according to the manufacturer's instructions. Reactions were performed in triplicate in an Applied Biosystems 7900HT Fast Real-Time PCR System using universal conditions. Transcript levels were quantified and expressed relative to those of the human transferrin receptor (TFRC) as 2^-ΔCt.
# MSK-Leuk1 cells [2] = assay: Apoptosis assay (Guava Nexin, annexin V); details: for decrease of apoptosis: E2 1 nM, 72 h
# Description: Apoptosis assay. Apoptosis was assessed using the Guava Nexin® (Millipore Corp., Billerica, Mass.). Fifty thousand cells were plated per well in 6-well plates. After the appropriate treatment, floating cells were collected, combined with attached cells following trypsinization, and resuspended in DermaLife® K Medium (Lifeline Cell Technology, Walkersville, Md.) supplemented with 5% FBS. The cell suspension (100 μl) was incubated with 100 μl of Guava Nexin® Reagent for 20 min, according to the manufacturer's instructions. Two thousand cells were analyzed from each sample using the Guava EasyCyte™ system, and the resulting data were expressed as a percentage of apoptotic cells (annexin V positive cells/total number of cells counted).
# MSK-Leuk1 cells [3] = assay: Cell proliferation (total DNA, Fluorescent DNA Quantitation kit); details: vector-expressing MSK-Leuk1 cells, E2 1 nM, 72 h, not statistically significant
# Description: Cell proliferation. Fifty thousand cells/well were plated in 6-well plates. After the appropriate treatment, the DNA content of the cells, an indirect measure of proliferation, was determined using a Fluorescent DNA Quantitation kit (Bio-Rad Laboratories, Hercules, Calif.). In brief, cells were harvested, sonicated in 0.1× TEN assay buffer (Bio-Rad Laboratories) for 5 s, and incubated with a Hoechst dye mixture (BioRad Laboratories) for 1 h. Total DNA was measured using Fluoroscan Ascent FL (Thermo Fisher Scientific, Waltham, Mass.) at an excitation wavelength of 360 nm and an emission wavelength of 460 nm.
# HNSCC cells = assay: Quantitative real-time RT-PCR of transcript levels after E2 exposure, HNSCC cells; details: E2 1 nM, 24 h
# Description: Cell lines and treatments. MSK-Leuk1 cells were derived from a dysplastic leukoplakia lesion located adjacent to a SCC of the tongue. MSK-Leuk1 cells were cultured in KGM medium (Lonza, Walkersville, Md.). MSK-Leuk1 cells (passage 33) were determined to be identical to the early passage MSK-Leuk1 cells (Identity Mapping Kit, Coriell Institute for Medical Research, Camden, N.J.). All HNSCC cell lines were derived from patients with SCC of the tongue. SCC9 ([…]) and SCC15 ([…]) cells were cultured in S-MEM medium, supplemented with 2 mM L-glutamine, 100 units/ml penicillin, 100 μg/ml streptomycin and 10% FBS. […]
# For all the experiments that involved estradiol (E2) exposure, MSK-Leuk1 cells were cultured in phenol red-free and serum-free DermaLife K Medium (Lifeline Cell Technology, Walkersville, Md.). […] Cells were harvested after the appropriate treatment period and analyzed.
# Quantitative real-time reverse transcription PCR. RNA was extracted from pelleted cultured cells using the RNeasy Mini kit (Qiagen, Valencia, Calif.) and its quality (18S and 28S RNA) was evaluated by gel electrophoresis. cDNA was synthesized from 1 μg of total RNA, using the High Capacity cDNA Archive Kit (Applied Biosystems, Inc., Foster City, Calif.). […] Transcript levels were quantified and expressed relative to those of the human transferrin receptor (TFRC) as 2^-ΔCt.
# MSK-Leuk1 cells [4] = assay: Cell motility assay (scratch gap closure); details: vector or CYP1B1 shRNA, E2 1 nM, 16 h post-scratch
# Description: Cell motility assay. MSK-Leuk1 cells, expressing either vector or CYP1B1 shRNA, were cultured in phenol red-free and serum-free medium for 48 h and then plated at 70% confluence. After 24 h, the cells were treated with either vehicle or E2 (1 nM) in triplicate, as described above. When cells reached 100% confluence (48 h later), the surface of the cell culture dish was carefully scratched using a micropipette tip, thus making an evenly distributed gap in the cell monolayer. The medium was replaced, and five representative images of each gap were acquired at 0 h using a Nikon TE-2000U wide field inverted microscope (Optical Apparatus Co., Ardmore, Pa.) equipped with a Roper Scientific Cool Snap HQ camera. Another set of 5-10 representative images per gap was obtained following a 16-h incubation. The area devoid of cells was measured on every image using MetaMorph 7.0 (Molecular Devices, Inc., Sunnyvale, Calif.). The gap closure percentages were calculated as (area at 0 h−area at 16 h)/(area at 0 h).
# In addition, a time-lapse movie capturing the process of gap closure in vector-expressing MSK-Leuk1 cells was obtained. The medium was replaced with fresh medium containing 25 mM HEPES buffer, and cells were allowed to incubate for 1 h at 37° C. […] The percentage of proliferating cells (those rounded up for cell division) was counted in this representative area.
SMILES,levels of COMT and ERβ transcripts post-treatment (MSK-Leuk1 cells [1]),"induction of CYP1B1 transcript levels over vehicle-treated controls (MSK-Leuk1 cells [1]; 24 h, P=0.0004)",time of peak induction of CYP1B1 transcripts (MSK-Leuk1 cells [1]; time course),"decrease of apoptosis (MSK-Leuk1 cells [2]; CYP1B1 shRNA-expressing MSK-Leuk1 cells, P=0.015)","decrease of apoptosis (MSK-Leuk1 cells [2]; vector-expressing MSK-Leuk1 cells, P=0.030)",increase of cell proliferation (MSK-Leuk1 cells [3]),"levels of ERβ, CYP1B1 and COMT transcripts (HNSCC cells)",effect of treatment on motility (gap closure) (MSK-Leuk1 cells [4]),"effect on E2-mediated decrease in apoptosis (MSK-Leuk1 cells [2]; MSK-Leuk1 cells, fulvestrant 1 μM added to E2 1 nM)"
"C[C@]12CC[C@@H]3c4ccc(O)cc4CC[C@H]3[C@@H]1CC[C@@H]2O [E2, 17β-estradiol]",remained unaltered,2.3 fold,6 h,30.1%,25.5%,10%,did not alter the level of any of the transcripts of interest,not affected,
C[C@]12CC[C@@H]3c4ccc(O)cc4C[C@@H](CCCCCCCCC[S+]([O-])CCCC(F)(F)C(F)(F)F)[C@H]3[C@@H]1CC[C@@H]2O (stereo partly drawn) [fulvestrant],,,,,,,,,restored
